# In patent US11186610B2, “Crystal of glutathione trisulfide dihydrate and method for producing same” (KYOWA HAKKO BIO CO., LTD., priority 2016, dated 2021):
# Test: Hygroscopicity / storage stability: weight change on storage at 40° C. and 75% relative humidity
# Assay type: physicochemical
# Settings: for Weight change with the elapse of time (in words): storage 0-4 hours at 40° C.
# Description: 1 g of the crystal of glutathione trisulfide dihydrate produced in Example 2 was dissolved in water, and the volume was made up to 100 mL. The aqueous solution was filtered with a 0.45 μm of filter and then lyophilized to obtain a whitish transparent powder.
# Subsequently, hygroscopicity of the obtained non-crystalline amorphous form of glutathione trisulfide and the crystal of glutathione trisulfide dihydrate produced in Example 2 was compared.
# About 100 mg of each sample was weighed with a precise balance and then filled in a glass container, and after storage in THE051A (manufactured by Advantec Toyo Kaisha, Ltd.) under conditions of 40° C. and 75% relative humidity, the sample was weighed again to calculate a weight change rate. The sample weight after each elapsed time was measured with respect to 100% weight at the start of test.
# [1] = as compared with the non-crystalline amorphous form, 40° C.
Compound,Hygroscopicity (in words) [1],Storage stability (in words) [1],"Sample weight with respect to 100% weight at the start of test (elapsed time 0 hour, 40° C.) [%]","Sample weight with respect to 100% weight at the start of test (elapsed time 0.5 hour, 40° C.) [%]","Sample weight with respect to 100% weight at the start of test (elapsed time 1 hour, 40° C.) [%]","Sample weight with respect to 100% weight at the start of test (elapsed time 2 hours, 40° C.) [%]","Sample weight with respect to 100% weight at the start of test (elapsed time 4 hours, 40° C.) [%]",Weight change with the elapse of time (in words)
"N[C@@H](CCC(=O)N[C@@H](CSSSC[C@H](NC(=O)CC[C@H](N)C(=O)O)C(=O)NCC(=O)O)C(=O)NCC(=O)O)C(=O)O.O.O [crystal of dehydrate, glutathione trisulfide dihydrate]",low hygroscopicity,excellent storage stability,100.0,100.0,100.0,100.0,100.0,almost not changed
"N[C@@H](CCC(=O)N[C@@H](CSSSC[C@H](NC(=O)CC[C@H](N)C(=O)O)C(=O)NCC(=O)O)C(=O)NCC(=O)O)C(=O)O [non-crystalline amorphous form, glutathione trisulfide]",–,–,100.0,106.7,107.7,108.7,108.7,increases with the elapse of time
